The text below walks through data of paper PMC9243000 (Cell Discovery, 2022).

The test system of assay [1] is SARS-CoV-2 (B.1.1.63, D614G). Type of assay: cell-based.
The test system of assay [2] is Omicron variant (B.1.1.529). Briefly: Post-exposure antiviral assay in hamsters, Omicron. Type of assay: in vivo.
The subject of another assay is SARS-CoV-2 Alpha variant. The following applies: 18 h.
A further assay deals with SARS-CoV-2 Beta variant. The following applies: 18 h.
Another assay concerns SARS-CoV-2 Delta variant. Particulars: 18 h.

Positions of bridges follow the written chain, without caps; N, C: chain ends. Chains are numbered I, II in the order given. No end group written: not given here.

The term IC50 denotes the concentration that inhibits the measured activity by half. The low end stands for higher potency, the high end for lower potency. Turning to “I: GAICHPVFCPRRYKQIGTCGLPGTKCCKKPKK / II: GAICHPVFCPRRYKQIGTCGLPGTKCCKKPK / III: GAICHPVFCPRRYKQIGTCGLPGTKCCKKP / IV: GAICHPVFCPRRYKQIGTCGLPGTKCCKKP (amide I:31-IV:C, I:32-II:C, II:31-III:C; cysteines drawn unpaired) [4H30]”, the “inhibition of SARS-CoV-2 replication when added at 6 hpi” value in assay [1] was “significantly inhibit”. Further, in assay [2] ([…], plaque assay, n = 4), the “Omicron variant titers in the nasal wash” value is given as “significantly reduce”. Besides, in assay [2] (hamster, in vivo), the “inhibition of Omicron replication in hamster lungs” value is given as “more than 20 fold”. Further, the half-inhibitory concentration (IC50) with SARS-CoV-2 Alpha variant is 0.75 µg/mL; with SARS-CoV-2 Beta variant, 0.89 µg/mL; in the assay on SARS-CoV-2 Delta variant, 0.79 µg/mL.
